# Results as given in US10376589B2, “Method for the treatment of a solid tumour” (The University of Sydney, priority 2011, dated 2019).
# Legend:
# Format in all cases: cell-based, human
# [1] = system: DLD-1 colon cancer cells; experiment: MTT cytotoxicity assay, 72 hrs; conditions: DLD-1, MTT; for IC50: Homo sapiens
# Procedure: (§1) Human DLD-1 colon cancer cells and human PA-1 ovarian cancer cells were obtained from the American Type Culture Collection (Manassas, Va., USA). Cells were maintained in complete media (Advanced DMEM (Invitrogen) and supplemented with 2% foetal bovine serum (Sigma) and 2 mM Glutamax™ (Invitrogen)) at 37° C. in a humidified, 5% CO2 atmosphere. Spheroids were formed by plating 1.5×10^5 cells/ml onto agarose coated 96 well imaging plates (BD Biosciences) and the cells allowed to aggregate for 72 hrs at 37° C. in a humidified, 5% CO2 atmosphere resulting in the formation of single spheroid per well.
# (§2) Active compounds and/or nanoparticles were diluted as required in cell media immediately prior to the assay. Cytotoxicity was determined using the MTT assay as follows. 1×10^5 cells were seeded onto each well of flat bottomed 96-well plates and allowed to attach overnight. Solutions of compounds+/−nanoparticles were added to triplicate wells at concentrations spanning a 4-log range and incubated for 72 hrs. MTT (3-(4, 5-dimethylthiazolyl-2)-2,5-diphenyltetrazolium bromide) (1.0 mM) was added to each well and were incubated for a further 4 hrs. The culture medium was removed from each well, DMSO (150 μL) was added, the plate shaken for 5 seconds and the absorbance measured immediately at 600 nm in a Victor^3V microplate reader (Perkin Elmer). IC50 values were determined as the drug concentration that reduced the absorbance to 50% of that in untreated control wells. At least three independent experiments were performed for each compound with triplicate readings in each experiment.
# [2] = system: PA-1 ovarian cancer cells; experiment: MTT cytotoxicity assay, 72 hrs; conditions: PA-1, MTT
# Procedure: as §1, §2
# [3] = system: DLD-1 spheroids; experiment: Cisplatin accumulation in spheroids by atomic absorption spectroscopy; conditions: cisplatin 6 ppm without iron oxide particles, 48 hours incubation
# Procedure: as §1
# DLD-1 spheroids prepared as per example 25 were dosed as with 100 μl of solution of complete media containing cisplatin and iron oxide nanoparticles from examples 1 and 2 to yield a final concentration of both cisplatin and iron oxide of 6 ppm. The spheroids with iron oxide particles and cisplatin were replaced in the incubator and maintained at 37° C. in a 5% CO2 atmosphere. After 48 hours incubation, the free cisplatin and nanoparticles in the media were washed with excess phosphate buffered saline.
# [4] = system: DLD-1 spheroids; experiment: Confocal imaging of fluorescent active compound diffusion into spheroids
# Procedure: as §1
# (§3) (a) To the suspension of the 3 day old spheroids from example 25, 100 μl of a solution containing nanoparticles incomplete media was added to each spheroid, to yield a final concentration of particles of 10 ppm in 200 μl total volume. he spheroids were replaced in an incubator at 37° C., 5% CO2. […]
# DLD-1 spheroids from example 25 were either dosed with NP2 (example 2), which are particles coated with a stabiliser containing a phosphate anchoring group or NP19 or NP23 (examples 19 and 23), which are particles coated with a stabiliser that has no anchoring portion as per example 27b. The spheroid was then imaged by confocal microscopy (as per example 28) to visualise doxorubicin fluorescence.
# [5] = system: PA-1 spheroids; experiment: Spheroid outgrowth assay
# Procedure: as §1
# as §3, with “CO2. After 24 hours incubation, the nanoparticles in the media were removed by washing with excess phosphate buffered saline prior to further experimentation.” for “CO2.”
# Spheroids from example 25 were treated as per example 27b and 27c. […] Widefield fluorescence images of the brightfield and Hoechst 33342 stained nuclei were taken of the cells that had grown out from the spheroid (Olympus CellR). To quantitate the outgrowth, the number of nuclei within a 60° angle from the edge of the spheroid was counted. […]
compound,measurement,setting,value
O=c1[nH]cc(F)c(=O)[nH]1 [5-Fluorouracil],IC50,[1],10 µM
same,IC50,[2]; Homo sapiens,10 µM
N.N.[Cl][Pt][Cl] [Cisplatin],IC50,[2],0.6 µM
same,concentration of cisplatin in the spheroids,[3],0.20 ppb
COc1cccc2c1C(=O)c1c(O)c3c(c(O)c1C2=O)C[C@@](O)(C(=O)CO)C[C@@H]3O[C@H]1C[C@H](N)[C@H](O)[C@H](C)O1 [Doxorubicin],IC50,[1],1 µM
same,IC50,[2]; Homo sapiens,1 µM
same,doxorubicin diffusion into the spheroid,[4]; doxorubicin alone,approximately 70 μm
O=C1c2c(O)ccc(O)c2C(=O)c2c(NCCNCCO)ccc(NCCNCCO)c21 [Mitoxantrone],IC50,[1],0.04 µM
same,IC50,[2]; Homo sapiens,0.02 µM
same,mitoxantrone diffusion into the spheroid,[4]; mitoxantrone alone,approximately 70 μm
same,"effectiveness, co-administration versus administration of active compound delayed 24 hours",[5]; PA-1 spheroids,requires the co-administration of nanoparticles
same,effectiveness in PA-1 compared to DLD-1 spheroids,"[5]; active compound co-administered with nanoparticles (examples 2, 3, 4, 5)",significantly more effective
CC(=O)O[C@H]1C(=O)[C@@]2(C)[C@H]([C@H](OC(=O)c3ccccc3)[C@]3(O)C[C@H](OC(=O)[C@H](O)[C@@H](NC(=O)c4ccccc4)c4ccccc4)C(C)=C1C3(C)C)[C@]1(OC(C)=O)CO[C@@H]1C[C@@H]2O [Paclitaxel],72 hr IC50,[1]; result in words,indeterminable*
same,72 hr IC50,[2]; result in words,indeterminable*
